# Measured values published in patent publication US12262990B2, “Methods and materials for prolonged sweat stimulation” (priority 2016, dated 2025).
# Columns and labels:
# [1] = target: acetylcholinesterase (AChE) (Homo sapiens, UniProt P22303); settings: in words; cited from earlier work
# skin of Persons A and B [2] = experiment: Example 1: iontophoretic sweat stimulation on two persons, followed by skin impedance; type: in vivo, human; settings: for duration of sweat stimulation from a single dose: about 40 mC/cm^2, estimated 0.142 mg, skin impedance
# Experimental: (§1) Sweat was stimulated on two persons (A and B) using for each person a current of 0.5 mA and a charge of 75 mC applied over a total stimulated area of 1.9 cm^2 for a time of 150 seconds. Thus, the total charge density was 75 mC/1.9 cm^2 or about 40 mC/cm^2, and the estimated dose of carbachol delivered to the skin was 0.142 mg. The charge density and stimulant dose estimates may vary based on other ionic impurities that are also dosed (e.g., sodium dosed could decrease the amount of carbachol dosed). The effect of the dosed ionic impurities can be estimated or quantified in any given case by analytical chemistry techniques. […] The stimulated area was divided among two circular test sites that were approximately 1 inch apart. Skin impedance was measured using a Gamry Potentiostat using 2 kHz and 1 V peak to peak sinewave. The electrical resistance results are plotted in FIGS. 2A-2D and 3A-3D for Persons A and B, respectively (the data has been separated into four charts for each person for the sake of clarity). The baseline plots were measured at a control site (i.e., non-stimulated skin) positioned within 1 inch of the stimulation site.
# skin of Persons A and B [3] = experiment: Example 1: sweat rates by visual and gravimetric (filter paper) testing; type: in vivo, human; settings: for Sweat Generation Rate: single dose about 40 mC/cm^2
# Experimental: as §1
# Sweat rates in nL/min/gland were also quantified using visual testing and gravimetric testing. Results from Person B are shown in FIG. 4 for a skin site of about 1 cm^2 of skin at 25 hours after stimulation. Approximately 130 active glands were counted per cm^2. Filter papers were weighed, placed on stimulated and control sites for 10 minutes under a plastic wrap to prevent evaporation, and immediately weighed again, and then sweat generation rates were calculated. […] The data for the stimulated sites 1 and 2 (paper measurements taken from each of the two stimulation areas) is shown in Table 2.
# skin of 8 subjects = experiment: Example 2: iontophoretic sweat stimulation on 8 subjects, gravimetric sweat rate; type: in vivo, human
# Description: On 8 subjects, sweat was stimulated utilizing carbachol four times as detailed in Table 4 and one additional time utilizing pilocarpine. The stimulated area was divided among two circular test sites with areas of 0.88 cm^2 that were approximately 1 inch apart, which provides a total stimulation area of 1.76 cm^2. The carbachol doses in Table 4 are shown as percentages of the applied charge density compared to the charge density of pilocarpine applied by the commercial Wescor Nanoduct product, which is a charge density of 42 mC/cm^2. The pilocarpine was dosed over 150 seconds using a current of 0.28 mA/cm^2 and a charge density of 42 mC/cm^2, which delivered approximately 90.65 μg/cm^2.
# Sweat rate was determined by a gravimetric test. Filter papers were weighed, placed on stimulated and control sites for 10 minutes under a specially designed acrylic holder that prevented any wicking of sweat from neighboring areas and prevented evaporation. The papers were immediately weighed again, and then sweat generation rates were calculated. The results from the gravimetric testing are plotted in FIGS. 4-6. Additionally, three subjects received three consecutive doses of 12.5% carbachol once the sweat rate had fallen below 1 nL/min/gland. The results from the repeated stimulation testing of subjects 1-3 are plotted in FIGS. 7A-7C, respectively.
# Muscarinic receptor = settings: class symbols, key not given; cited from earlier work
# Nicotinic receptor = settings: class symbols, key not given; cited from earlier work
# skin = settings: cited from earlier work
# Sequence of acetylcholinesterase (AChE) (P22303 32-614, species assumed): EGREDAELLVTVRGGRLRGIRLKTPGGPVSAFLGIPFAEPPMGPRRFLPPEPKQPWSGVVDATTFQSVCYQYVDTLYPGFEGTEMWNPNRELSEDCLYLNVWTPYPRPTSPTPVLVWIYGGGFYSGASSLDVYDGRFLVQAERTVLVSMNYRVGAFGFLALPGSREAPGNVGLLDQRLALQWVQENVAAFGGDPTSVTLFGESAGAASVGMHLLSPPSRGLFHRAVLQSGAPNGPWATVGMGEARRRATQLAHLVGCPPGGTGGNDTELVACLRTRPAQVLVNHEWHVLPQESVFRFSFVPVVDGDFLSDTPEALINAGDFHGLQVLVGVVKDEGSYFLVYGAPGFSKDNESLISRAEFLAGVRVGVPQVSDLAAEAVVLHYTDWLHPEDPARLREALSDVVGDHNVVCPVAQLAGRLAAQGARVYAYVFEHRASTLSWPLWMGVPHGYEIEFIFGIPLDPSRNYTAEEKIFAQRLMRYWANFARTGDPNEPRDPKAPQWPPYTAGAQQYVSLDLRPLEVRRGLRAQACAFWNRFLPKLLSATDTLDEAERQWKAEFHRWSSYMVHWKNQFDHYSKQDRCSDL
structure (smiles),measurement,setting,value
CC(=O)OCC[N+](C)(C)C [Acetylcholine],metabolism by acetylcholinesterase (AChE),[1],rapidly metabolized
C[N+](C)(C)CCOC(N)=O [Carbachol],duration of sweat stimulation from a single dose,skin of Persons A and B [2]; Person A,at least 31 hours
same,duration of sweat stimulation from a single dose,skin of Persons A and B [2]; both Persons A and B,at least 24 hours
same,duration of sweat generation,skin of Persons A and B [2]; lower charge densities than about 40 mC/cm^2,24 h
same,sweat rate,"skin of Persons A and B [3]; 40 mC/cm^2 charge density, for 24 hours",greater than 1 nL/min/gland
same,active glands counted,"skin of Persons A and B [3]; Person B, skin site of about 1 cm^2, 25 hours after stimulation",Approximately 130 per cm^2
same,Sweat Generation Rate,"skin of Persons A and B [3]; Subject A, Site 1, 4 hours after stimulation",6.4 nl/min/gland
same,Sweat Generation Rate,"skin of Persons A and B [3]; Subject A, Site 1, 23 hours after stimulation",3.3 nl/min/gland
same,Sweat Generation Rate,"skin of Persons A and B [3]; Subject A, Site 2, 4 hours after stimulation",4.6 nl/min/gland
same,Sweat Generation Rate,"skin of Persons A and B [3]; Subject A, Site 2, 23 hours after stimulation",3.1 nl/min/gland
same,Sweat Generation Rate,"skin of Persons A and B [3]; Subject B, Site 1, 5 hours after stimulation",8.3 nl/min/gland
same,Sweat Generation Rate,"skin of Persons A and B [3]; Subject B, Site 1, 23 hours after stimulation",0.3 nl/min/gland
same,Sweat Generation Rate,"skin of Persons A and B [3]; Subject B, Site 2, 5 hours after stimulation",9.4 nl/min/gland
same,Sweat Generation Rate,"skin of Persons A and B [3]; Subject B, Site 2, 23 hours after stimulation",2.7 nl/min/gland
same,stimulated sweat amount,skin of Persons A and B [3]; charge density of less than 40 mC/cm^2,"greater than 1,400 nL/gland/dose"
same,average sweat rates observed,"skin of Persons A and B [3]; for 24 hours, half the dose",greater than 2 nL/min/gland
same,duration of stimulated sweating response of greater than 0.1 nL/min/gland,"skin of 8 subjects; 5 out of 8 subjects, single 12.5% dose (5.25 mC/cm^2)",greater than 8 hours
same,"sustained sweating following a single iontophoretic dose, compared with pilocarpine","skin of 8 subjects; 8 subjects, in words",much longer than commonly observed for pilocarpine
same,duration of sweating responses,skin of 8 subjects; four of the 8 subjects,greater than 24 hours
same,duration of sweating at greater than 1 nL/min/gland,"skin of 8 subjects; half of the subjects, single 100% dose (42 mC/cm^2)",greater than 24 hours
same,duration of sweating at greater than 1 nL/min/gland,"skin of 8 subjects; subjects e, g, h, 100% dosage (42 mC/cm^2)",greater than 7 hours
same,duration of sweating responses,skin of 8 subjects; three of the 8 subjects,greater than 48 hours
same,Receptor Activity Muscarinic,Muscarinic receptor,strong
same,Receptor Activity Nicotinic,Nicotinic receptor,strong
same,metabolism by acetylcholinesterase (AChE),[1],metabolized much more slowly
CC(=O)OC(C)C[N+](C)(C)C (stereo not shown) [Methacholine],metabolism by acetylcholinesterase (AChE),[1],metabolized much more slowly
CC[C@@H]1C(=O)OC[C@@H]1Cc1cncn1C [Pilocarpine],average sweat rate,"skin; charge density of 40 mC/cm^2, for 90 minutes",1-4 nL/min/gland
same,duration of sweat response,"skin; charge density of 40 mC/cm^2, on average",90 min
